According to publication PMC10471769, “Biochemical analysis of Komagataella phaffii oxidative folding proposes novel regulatory mechanisms of disulfide bond formation in yeast” (Scientific Reports, 2023):

Key:
[1] = biological target: T1, monomeric K. phaffii Ero1 (Komagataella phaffii, UniProt F2QNN1, C136A); test: absorbance at […] nm after reflavination and size exclusion; format: binding; settings: stoichiometry, no affinity constant; 1:2 molar excess FAD+ overnight on ice, phosphate pH 7.0
T1 construct: His-tagged 1-384 active core, C-terminal amphipathic helix removed, monomer; E. coli BL21(DE3) with CyDisCo
T1 sequence (F2QNN1 entry or part of it C136A): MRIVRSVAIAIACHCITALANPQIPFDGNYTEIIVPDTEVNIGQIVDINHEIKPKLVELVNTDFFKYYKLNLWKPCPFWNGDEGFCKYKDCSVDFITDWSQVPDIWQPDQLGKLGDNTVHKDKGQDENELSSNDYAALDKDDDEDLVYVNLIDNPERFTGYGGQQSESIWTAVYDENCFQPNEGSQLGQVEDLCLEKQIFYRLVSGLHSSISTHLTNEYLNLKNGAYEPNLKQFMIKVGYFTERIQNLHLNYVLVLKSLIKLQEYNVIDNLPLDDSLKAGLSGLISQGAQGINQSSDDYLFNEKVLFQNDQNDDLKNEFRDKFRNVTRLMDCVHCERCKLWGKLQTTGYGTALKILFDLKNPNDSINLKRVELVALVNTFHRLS

[2] = biological target: T2, K. phaffii Ero1-Pdi1 complex (wild type) (Komagataella phaffii, UniProt F2QNN1); test: as above; format: binding; settings: stoichiometry, no affinity constant; 1:2 molar excess FAD+ overnight on ice, phosphate pH 7.0
T2 construct: 1:1 disulfide-linked heterodimer (Ero1 Cys136-Pdi1 Cys404); His-tagged Ero1 1-384 core without C-terminal amphipathic helix (45 kDa) plus Pdi1 (56 kDa); E. coli BL21(DE3) with customized CyDisCo; with Protein disulfide-isomerase
T2 sequence (F2QNN1 entry or part of it): as the sequence (F2QNN1 entry or part of it C136A) above, with A136C counted along it
T2 sequence (F2QY05 entry or part of it, further chain): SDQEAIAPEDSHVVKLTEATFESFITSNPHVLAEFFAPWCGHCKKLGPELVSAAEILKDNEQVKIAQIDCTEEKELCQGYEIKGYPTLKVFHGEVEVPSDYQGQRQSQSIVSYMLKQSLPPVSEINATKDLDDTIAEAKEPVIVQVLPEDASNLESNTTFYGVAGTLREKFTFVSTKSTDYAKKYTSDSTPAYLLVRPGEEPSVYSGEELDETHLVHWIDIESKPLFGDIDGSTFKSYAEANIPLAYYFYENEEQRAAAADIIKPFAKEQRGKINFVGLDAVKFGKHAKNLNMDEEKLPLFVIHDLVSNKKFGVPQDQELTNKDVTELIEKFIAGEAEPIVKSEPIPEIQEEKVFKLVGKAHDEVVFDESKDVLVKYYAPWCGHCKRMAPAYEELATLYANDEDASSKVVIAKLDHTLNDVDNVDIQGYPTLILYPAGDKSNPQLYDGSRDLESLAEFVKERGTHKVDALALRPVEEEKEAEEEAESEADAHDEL

Structure (SMILES): Cc1cc2nc3c(=O)[nH]c(=O)nc-3n(C[C@H](O)[C@H](O)[C@H](O)COP(=O)(O)OP(=O)(O)OC[C@H]3O[C@@H](n4cnc5c(N)ncnc54)[C@H](O)[C@@H]3O)c2cc1C [FAD+]
- FAD+ molecules per monomer [1]: 0.85 ± 0.04 molecules per monomer
- FAD+ molecules per complex [2]: 0.93 ± 0.05 molecules per complex
